What was measured:
OATP1B1 = system: OATP1B1; design: method as in ref 75 (a number printed in a supplementary file, which may have a reference list of its own: not looked up in the article's list); conditions: cited from earlier work; for inhibition: OATP1B1/3
OATP1B3 = system: OATP1B3; design: method as in ref 75 (a number printed in a supplementary file, which may have a reference list of its own: not looked up in the article's list); conditions: cited from earlier work; for inhibition: OATP1B1/3
mBCRP = system: mBCRP; design: method as in ref 154 (a number printed in a supplementary file, which may have a reference list of its own: not looked up in the article's list); conditions: cited from earlier work
mouse MRP1 = system: mouse MRP1; design: method as in ref 154 (a number printed in a supplementary file, which may have a reference list of its own: not looked up in the article's list); conditions: cited from earlier work
MDR1 = conditions: cited from earlier work
ABCG5/8 = system: ABCG5/8; design: method as in ref 155 (a number printed in a supplementary file, which may have a reference list of its own: not looked up in the article's list); conditions: cited from earlier work
Rat BSEP = system: Rat BSEP; design: method as in ref 154 (a number printed in a supplementary file, which may have a reference list of its own: not looked up in the article's list); conditions: cited from earlier work
rMRP4 = system: rMRP4; design: method as in ref 157 (a number printed in a supplementary file, which may have a reference list of its own: not looked up in the article's list); conditions: transcription and expression; cited from earlier work
rMRP2 = system: rMRP2; design: method as in ref 157 (a number printed in a supplementary file, which may have a reference list of its own: not looked up in the article's list); conditions: transcription and expression; cited from earlier work
rMDR1a = system: rMDR1a; design: method as in ref 157 (a number printed in a supplementary file, which may have a reference list of its own: not looked up in the article's list); conditions: transcription and expression; cited from earlier work
rMRP1 = system: rMRP1; design: method as in ref 156 (a number printed in a supplementary file, which may have a reference list of its own: not looked up in the article's list); conditions: transcription and expression; cited from earlier work
rNTCP = system: rNTCP; design: method as in ref 157 (a number printed in a supplementary file, which may have a reference list of its own: not looked up in the article's list); conditions: transcription and expression; cited from earlier work
SERT = system: SERT; design: method as in ref 153 (a number printed in a supplementary file, which may have a reference list of its own: not looked up in the article's list); conditions: cited from earlier work
DAT = system: DAT; design: method as in ref 153 (a number printed in a supplementary file, which may have a reference list of its own: not looked up in the article's list); conditions: cited from earlier work
NET = system: NET; design: method as in ref 153 (a number printed in a supplementary file, which may have a reference list of its own: not looked up in the article's list); conditions: cited from earlier work
SiHa = assay: Antiproliferative MTT assay; assay type: cell-based, human; conditions: 72 h
Description: (§1) For the determination of the antiproliferative properties of the prepared extract and selected alkaloids (isopteropodine, mitraphylline, and uncarine D), an MTT assay was applied on our […] cell panel (see Table S4). […] All were maintained in a minimal essential medium completed with 10% fetal bovine serum, 1% non-essential amino acids, and 1% penicillin–streptomycin at 37 °C in a humidified atmosphere containing 5% CO2. All cell lines were purchased from the European Collection of Cell Cultures (Salisbury, UK), except for SiHa and C33A, which were from the American Tissue Culture Collection, LGC Standards GmbH (Wesel, Germany). Cell culture media and supplements were obtained from Lonza Group Ltd. (Basel, Switzerland). Cells were seeded into 96-well plates (C33A 10,000/well, all others 5000/well); after overnight incubation, the test substances were added and incubated for another 72 h under cell-culturing conditions. Uncaria tomentosa extract and the alkaloids were tested in the 1–90 μg/mL and 1–30 μM ranges, respectively. Finally, 20 μL of 5 mg/mL MTT solution was added to each well and incubated for 4 h; the medium was discarded, and the precipitated formazan crystals were dissolved in DMSO for 60 min with shaking. The absorbance was determined using a microplate reader (SPECTROstar Nano, BMG Labtech GmbH). Two independent experiments were performed with five parallels for each condition. Cisplatin, a clinically used anticancer agent (Ebewe GmbH, Unterach, Austria), was included as a reference compound. Calculations were conducted using the GraphPad Prism 10.0 software (GraphPad Software Inc., San Diego, CA, USA).
(§2) Table S4 – Antiproliferative properties of Uncaria tomentosa extract, three natural products (isopteropodine, mitraphylline, and uncarine D) and the
(§3) reference agent cisplatin.
(§4) Cell line Uncaria tomentosa isopteropodine mitraphylline uncarine D [95% confidence
(§5) 1: The highest applied concentration was 90 μg/mL and 30 μM for the extract and the pure natural products, respectively.
(§6) 2: Inhibitions less than 20% compared to the untreated control were regarded as negligible and were not given numerically.

HEK293-Mock = assay: Antiproliferative MTT assay; assay type: cell-based, human; conditions: 72 h
Description: as §1, §2, §3, §4, §5, §6

C33A = assay: Antiproliferative MTT assay; assay type: cell-based, human; conditions: 72 h
Description: as §1, §2, §3, §4, §5, §6

HEK293-Mock-B = assay: Antiproliferative MTT assay; assay type: cell-based, human; conditions: 72 h
Description: as §1, §2, §3, §4, §5, §6

HEK293-OATP1B3 = assay type: cell-based, human
Description: as §1, §2, §3, §4, §5, §6

HEK293-OATP2B1 = assay type: cell-based, human
Description: as §1, §2, §3, §4, §5, §6

HEK293-OCT1 = assay type: cell-based, human
Description: as §1, §2, §3, §4, §5, §6

HEK293-OCT2 = assay type: cell-based, human
Description: as §1, §2, §3, §4, §5, §6

HEK293-OAT1 = assay type: cell-based, human
Description: as §1, §2, §3, §4, §5, §6

NIH/3T3 = assay: Antiproliferative MTT assay; assay type: cell-based, murine; conditions: 72 h
Description: as §1, §2, §3, §4, §5, §6

[1] = system: pregnane X receptor (PXR); conditions: cited from earlier work
T47D = assay: Antiproliferative MTT assay; assay type: cell-based, human; conditions: 30 μM pure natural product, 72 h
Description: as §1, §2, §3, §4, §5, §6

MCF7 = assay: Antiproliferative MTT assay; assay type: cell-based, human; conditions: 30 μM pure natural product, 72 h
Description: as §1, §2, §3, §4, §5, §6

MDA-MB-231 = assay: Antiproliferative MTT assay; assay type: cell-based, human; conditions: 30 μM pure natural product, 72 h
Description: as §1, §2, §3, §4, §5, §6

A2780 = assay: Antiproliferative MTT assay; assay type: cell-based, human; conditions: 30 μM pure natural product, 72 h
Description: as §1, §2, §3, §4, §5, §6

HeLa = assay: Antiproliferative MTT assay; assay type: cell-based, human; conditions: 30 μM pure natural product, 72 h
Description: as §1, §2, §3, §4, §5, §6

[2] = read-out: cisplatin IC50 [95% confidence interval]

## O=C1CC(c2ccccc2)Oc2cc(O)cc(O)c21 (stereo not shown) [5,7-Dihydroxyflavanone]
OATP1B1
  inhibition: < 50%
OATP1B3
  inhibition: < 50%

## CC(C)C1=CC2=CC[C@@H]3[C@](C)(CCC[C@@]3(C)C(=O)O)[C@H]2CC1 [Abietic acid]
OATP1B1; first value of OATP1B1/3 pair
  Ki: 1.47 µM
OATP1B3; second value of OATP1B1/3 pair
  Ki: 4.08 µM

## CC(C)=CCC[C@](C)(O)[C@@H]1CC=C(C)CC1 [Alpha-bisbolol]
OATP1B1
  inhibition: < 50%
OATP1B3
  inhibition: < 50%

## CC[C@H](CC[C@@H](C)[C@H]1CC[C@H]2[C@@H]3CC=C4C[C@@H](O)CC[C@]4(C)[C@H]3CC[C@]12C)C(C)C [Beta-Sitosterol]
mBCRP
  Type of interaction: no substrate, no inhibitor
Mouse MRP1
  Type of interaction: no substrate, no inhibitor
MDR1
  Type of interaction: no substrate, no inhibitor
ABCG5/8
  Type of interaction: probably substrate
Rat BSEP
  Type of interaction: no substrate, no inhibitor

## CC1(C)C2CCC1(C)C(O)C2 (stereo not shown) [Borneol]
rMRP4
  Type of interaction: inhibited the transcription
rMRP2
  Type of interaction: inhibited the transcription
rMDR1a
  Type of interaction: inhibited the transcription
rMRP1
  Type of interaction: inhibited the transcription
rNTCP
  Type of interaction: inhibited the transcription

## COc1cc(O)cc(/C=C/c2ccccc2)c1 [Pinosylvin 3-(methyl ether)]
OATP1B1
  inhibition: < 50%
OATP1B3
  inhibition: < 50%

## CC[C@H](CC[C@@H](C)[C@H]1CC[C@H]2[C@@H]3CC=C4C[C@@H](O)CC[C@]4(C)[C@H]3CC[C@]12C)C(C)C [Stigmast-5-en-3beta-ol]
OATP1B1
  inhibition: < 50%
OATP1B3
  inhibition: < 50%

## CC1(C)CCC2(C(=O)O)CCC3(C)C(=CCC4C5(C)CCC(O)C(C)(CO)C5CCC43C)C2C1 (stereo not drawn) [alpha-Hederagenin]
SERT
  IC50: 0.00134 ± 4e-05 µM
DAT
  IC50: 0.00109 ± 0.00012 µM
NET
  IC50: 0.00015 ± 2e-05 µM

## N.N.[Cl][Pt][Cl] [cisplatin, reference compound]
SiHa; [2]
  IC50: 4.29 µM
HEK293-Mock; [2]
  IC50: 19.5 µM
C33A; [2]
  IC50: 5.85 µM
HEK293-Mock-B; [2]
  IC50: 13.3 µM
HEK293-OATP1B3
  IC50: 11.2 µM
HEK293-OATP2B1
  IC50: 9.7 µM
HEK293-OCT1
  IC50: 9.14 µM
HEK293-OCT2
  IC50: 5.51 µM
HEK293-OAT1
  IC50: 5.55 µM
NIH/3T3; [2]
  IC50: 5.5 µM

## C=C[C@H]1CN2CC[C@]3(C(=O)Nc4ccccc43)[C@@H]2C[C@@H]1/C(=C\OC)C(=O)OC [corynoxeine]
[1]
  PXR activation: PXR activators

## C=C[C@H]1CN2CC[C@@]3(C(=O)Nc4ccccc43)[C@@H]2C[C@@H]1/C(=C\OC)C(=O)OC [isocorynoxeine]
[1]
  PXR activation: PXR activators

## COC(=O)C1=CO[C@@H](C)[C@@H]2CN3CC[C@]4(C(=O)Nc5ccccc54)[C@@H]3C[C@H]12 [pteropodine]
[1]
  PXR activation: PXR activators

## COC(=O)C1=CO[C@@H](C)[C@@H]2CN3CC[C@@]4(C(=O)Nc5ccccc54)[C@H]3C[C@H]12 [uncarine D]
T47D
  Cell growth inhibition at the highest concentration (% ± SEM): < 20%
SiHa; 30 μM pure natural product
  Cell growth inhibition at the highest concentration (% ± SEM): < 20%
HEK293-Mock; 30 μM pure natural product
  Cell growth inhibition at the highest concentration (% ± SEM): < 20%
MCF7
  Cell growth inhibition at the highest concentration (% ± SEM): < 20%
C33A; 30 μM pure natural product
  Cell growth inhibition at the highest concentration (% ± SEM): < 20%
HEK293-Mock-B; 30 μM pure natural product
  Cell growth inhibition at the highest concentration (% ± SEM): < 20%
MDA-MB-231
  Cell growth inhibition at the highest concentration (% ± SEM): < 20%
A2780
  Cell growth inhibition at the highest concentration (% ± SEM): < 20%
HeLa
  Cell growth inhibition at the highest concentration (% ± SEM): < 20%
NIH/3T3; 30 μM pure natural product
  Cell growth inhibition at the highest concentration (% ± SEM): < 20%

Reference: article PMC11597817, “Modulation of Multispecific Transporters by Uncaria tomentosa Extract and Its Major Phytoconstituents” (Pharmaceutics, 2024)
